“And” between values parts separate entries of the source, which are not always exact repeats. Equal values may be shown once. Inconclusive results and toxic doses are left out.

This passage reports T/C results from PubChem BioAssay AID328 (DTP/NCI, 2004).

For the test, the system named is BDF1 mice, P388 leukemia ip, median survival T/C. Put plainly: NCI In Vivo Anticancer Drug Screen. Data for tumor model P388 Leukemia (intraperitoneal) in B6D2F1 (BDF1) mice. Particulars: endpoint: median survival time, higher = longer survival. The procedure, abridged:
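Antitumour effect was judged in vivo: survival in drug-treated mice, normalised to that of vehicle-dosed controls, gives the reported T/C.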

Where [1] appears, read: dose: 100.0 mg/kg/injection, schedule: Q01DX009 (ip), vehicle: saline with Tween-80.
Setting [2] is: dose: 100.0 mg/kg/injection, schedule: Q04DX003 (ip), vehicle: saline with Tween-80.
[3] abbreviates: dose: 200.0 mg/kg/injection, schedule: Q01DX009 (ip), vehicle: saline with Tween-80.
Where [4] appears, read: dose: 200.0 mg/kg/injection, schedule: Q04DX003 (ip), vehicle: saline with Tween-80.
Where [5] appears, read: dose: 400.0 mg/kg/injection, schedule: Q01DX009 (ip), vehicle: saline with Tween-80.
Where [6] appears, read: dose: 400.0 mg/kg/injection, schedule: Q04DX003 (ip), vehicle: saline with Tween-80.
Setting [7] is: dose: 50.0 mg/kg/injection, schedule: Q01DX009 (ip), vehicle: saline.
Where [8] appears, read: dose: 100.0 mg/kg/injection, schedule: Q01DX009 (ip), vehicle: saline.
[9] abbreviates: dose: 200.0 mg/kg/injection, schedule: Q01DX009 (ip), vehicle: saline.
[10] abbreviates: dose: 100.0 mg/kg/injection, schedule: Q01DX009 (ip), vehicle: Klucel (hydroxypropylcellulose) (HPC).
[11] abbreviates: dose: 100.0 mg/kg/injection, schedule: Q04DX003 (ip), vehicle: Klucel (hydroxypropylcellulose) (HPC).
[12] abbreviates: dose: 200.0 mg/kg/injection, schedule: Q01DX009 (ip), vehicle: Klucel (hydroxypropylcellulose) (HPC).
Setting [13] is: dose: 200.0 mg/kg/injection, schedule: Q04DX003 (ip), vehicle: Klucel (hydroxypropylcellulose) (HPC).
The mark [14] stands for this setting: dose: 400.0 mg/kg/injection, schedule: Q04DX003 (ip), vehicle: Klucel (hydroxypropylcellulose) (HPC).
The mark [15] stands for this setting: dose: 100.0 mg/kg/injection, schedule: Q04DX003 (ip), vehicle: saline.
The mark [16] stands for this setting: dose: 200.0 mg/kg/injection, schedule: Q04DX003 (ip), vehicle: saline.
[17] abbreviates: dose: 400.0 mg/kg/injection, schedule: Q04DX003 (ip), vehicle: saline.

With `COc1cc(C=Nc2ccc(-c3nc(Cc4ccccc4)sc3C)cc2)ccc1N(CCCl)CCCl`, the T/C runs as follows: (dose: 3.13 mg/kg/injection, schedule: Q01DX009 (ip), vehicle: Klucel (hydroxypropylcellulose) (HPC)) 196 % of control; (dose: 6.25 mg/kg/injection, schedule: Q01DX009 (ip), vehicle: Klucel (hydroxypropylcellulose) (HPC)) 206 % of control; (dose: 12.5 mg/kg/injection, schedule: Q01DX009 (ip), vehicle: Klucel (hydroxypropylcellulose) (HPC)) 221 % of control; (dose: 25.0 mg/kg/injection, schedule: Q01DX009 (ip), vehicle: Klucel (hydroxypropylcellulose) (HPC)) 194 % of control and 198 % of control; (dose: 50.0 mg/kg/injection, schedule: Q01DX009 (ip), vehicle: Klucel (hydroxypropylcellulose) (HPC)) 108 % of control.
On to `c1coc(CNc2ncnc3nc[nH]c23)c1`, for which the T/C is, setting by setting: under setting [1], 95 % of control; under setting [2], 91 % of control; under setting [3], 86 % of control; under setting [4], 95 % of control; under setting [5], 100 % of control; under setting [6], 86 % of control.
For the molecule `C[n+]1ccc2cc(-c3ccccc3)c3ccccc3c2c1`, the T/C is, setting by setting: (dose: 0.06 mg/kg/injection, schedule: Q01DX009 (ip), vehicle: water) 100 % of control; (dose: 0.12 mg/kg/injection, schedule: Q01DX009 (ip), vehicle: water) 88 % of control; (dose: 0.25 mg/kg/injection, schedule: Q01DX009 (ip), vehicle: water) 89 % of control; (dose: 0.5 mg/kg/injection, schedule: Q01DX009 (ip), vehicle: water) 100 % of control; (dose: 1.0 mg/kg/injection, schedule: Q01DX009 (ip), vehicle: water) 100 % of control and 101 % of control; (dose: 2.0 mg/kg/injection, schedule: Q01DX009 (ip), vehicle: water) 101 % of control. The T/C (dose: 4.0 mg/kg/injection, schedule: Q01DX009 (ip), vehicle: water) is 99 % of control.
For `O=[N+]([O-])c1ccc(Sc2ccc(Cl)cc2)c2c1no[n+]2[O-]`, the T/C is, setting by setting: (dose: 15.0 mg/kg/injection, schedule: Q01DX009 (ip), vehicle: saline with Tween-80) 112 % of control; (dose: 30.0 mg/kg/injection, schedule: Q01DX009 (ip), vehicle: saline with Tween-80) 112 % of control; (dose: 60.0 mg/kg/injection, schedule: Q01DX009 (ip), vehicle: saline with Tween-80) 112 % of control.
For the molecule `CC(C)CCc1cc(O)c(CCC(C)C)cc1O`, the T/C is, setting by setting: (dose: 0.78 mg/kg/injection, schedule: Q01DX009 (ip), vehicle: saline with Tween-80) 101 % of control; (dose: 1.56 mg/kg/injection, schedule: Q01DX009 (ip), vehicle: saline with Tween-80) 102 % of control; (dose: 3.12 mg/kg/injection, schedule: Q01DX009 (ip), vehicle: saline with Tween-80) 102 % of control; (dose: 6.25 mg/kg/injection, schedule: Q01DX009 (ip), vehicle: saline with Tween-80) 104 % of control.
As for `COc1cccc2c1C(=O)c1c(O)c3c(c(O)c1C2=O)C[C@@](O)(C(=O)COC(=O)Cc1ccccc1)C[C@@H]3OC1CC(N)C(O)C(C)O1` (some centres not stated), the T/C is 162 % of control (dose: 1.3 mg/kg/injection, schedule: Q01DX009 (ip), vehicle: saline) and 200 % of control (dose: 2.0 mg/kg/injection, schedule: Q01DX009 (ip), vehicle: saline).
`CCOC(=O)/C(C#N)=C1/CCCN1`: the T/C is, setting by setting: under setting [1], 104 % of control; under setting [3], 100 % of control; under setting [5], 100 % of control.
For `NC1=NC(=O)/C(=C/c2ccccc2)S1`, the T/C is, setting by setting: under setting [7], 90 % of control; under setting [8], 100 % of control; under setting [9], 100 % of control.
Take `C[C@]12CC[C@@H]3c4ccc(O)cc4CC[C@H]3[C@@H]1C[C@H](O)C2`: the T/C was 100 % of control under setting [10]; 100 % of control under setting [11]; 95 % of control under setting [12]; 100 % of control under setting [13]; 112 % of control (dose: 400.0 mg/kg/injection, schedule: Q01DX009 (ip), vehicle: Klucel (hydroxypropylcellulose) (HPC)); 91 % of control under setting [14].
For the molecule `CCOC(=O)C(=CN1CCCCC1)C(=O)OCC`, the T/C by setting is: under setting [2], 95 % of control; under setting [4], 100 % of control; under setting [6], 100 % of control.
`CC1(C)CC2C(=O)c3ccccc3NC2c2ccccc21` (configuration not stated): the T/C is 87 % of control under setting [10]; 112 % of control under setting [11]; 108 % of control under setting [12]; 104 % of control under setting [13]; 108 % of control under setting [14].
With `COc1cc(NC(=O)C(C)NC(=O)C(N)CCCCN)cc2ccccc12` (configuration not stated), the T/C was 95 % of control (dose: 50.0 mg/kg/injection, schedule: Q01DX005 (ip), vehicle: suspension in saline) and 90 % of control (dose: 100.0 mg/kg/injection, schedule: Q01DX005 (ip), vehicle: suspension in saline).
Turning to `c1ccc(C2CCCCCC2)cc1`, the T/C is 110 % of control under setting [8]; 100 % of control under setting [15]; 110 % of control (dose: 166.0 mg/kg/injection, schedule: Q01DX009 (ip), vehicle: saline); 105 % of control under setting [9]; 90 % of control under setting [16]; 100 % of control under setting [17].
For `CC(C)(N)CCC(C)(C)NCCCN`, the T/C by setting is: (dose: 50.0 mg/kg/injection, schedule: Q01DX009 (ip), vehicle: water) 92 % of control; (dose: 100.0 mg/kg/injection, schedule: Q01DX009 (ip), vehicle: water) 103 % of control; (dose: 100.0 mg/kg/injection, schedule: Q04DX003 (ip), vehicle: water) 100 % of control; (dose: 200.0 mg/kg/injection, schedule: Q01DX009 (ip), vehicle: water) 106 % of control; (dose: 200.0 mg/kg/injection, schedule: Q04DX003 (ip), vehicle: water) 103 % of control; (dose: 400.0 mg/kg/injection, schedule: Q04DX003 (ip), vehicle: water) 92 % of control.
`CCCCCC(C)(C1=NC(C)(C)CC(C)O1)c1ccccc1` (configuration not stated): the T/C (dose: 12.5 mg/kg/injection, schedule: Q01DX001 (ip), vehicle: saline sonified) was 100 % of control; the T/C (dose: 25.0 mg/kg/injection, schedule: Q01DX001 (ip), vehicle: saline sonified) is 100 % of control; the T/C (dose: 50.0 mg/kg/injection, schedule: Q01DX001 (ip), vehicle: saline sonified) was 100 % of control.
On to `O=c1c(O)c(-c2ccc(O)c(O)c2)oc2cc(O)cc(O)c12`, for which the T/C is, setting by setting: (dose: 15.0 mg/kg/injection, schedule: Q01DX009 (ip), vehicle: saline) 118 % of control; (dose: 25.0 mg/kg/injection, schedule: Q01DX009 (ip), vehicle: saline) 108 % of control; (dose: 30.0 mg/kg/injection, schedule: Q01DX009 (ip), vehicle: saline) 109 % of control; under setting [7], 97 % of control and 112 % of control; under setting [8], 102 % of control and 117 % of control; (dose: 125.0 mg/kg/injection, schedule: Q01DX009 (ip), vehicle: saline) 118 % of control. The T/C is 110 % of control under setting [9] and 97 % of control (dose: 300.0 mg/kg/injection, schedule: Q01DX009 (ip), vehicle: saline).
Regarding `CC(=O)CC(C)=O.CC(=O)CC(C)=O.CC(=O)CC(C)=O.[Cr]`, the T/C runs as follows: under setting [15], 90 % of control; under setting [16], 90 % of control; under setting [17], 90 % of control.
Consider `COC(=O)C[CH2][Pb]([c]1ccccc1)([c]1ccccc1)[c]1ccccc1`, for which the T/C is 106 % of control (dose: 25.0 mg/kg/injection, schedule: Q01DX009 (ip), vehicle: saline with Tween-80) and 98 % of control (dose: 50.0 mg/kg/injection, schedule: Q01DX009 (ip), vehicle: saline with Tween-80).
`CC1=NN(c2ccc(S(=O)(=O)O)cc2)C(=O)/C1=C/c1ccc(Cl)cc1`: the T/C under setting [7] was 92 % of control and the T/C under setting [8] is 90 % of control.
Regarding `c1ccc(Sc2cccc3ccccc23)cc1`, the T/C runs as follows: under setting [1], 100 % of control; under setting [3], 104 % of control; under setting [5], 104 % of control.
